Reference: ChEMBL document CHEMBL2040771, “Discovery of a potent inhibitor of anaplastic lymphoma kinase with in vivo antitumor activity” (ACS Med Chem Lett, 2010)
Active and inactive are the calls of the source. No cut-off for these calls is given here.

Legend:
[1] = target: Protein-tyrosine kinase 2-beta (Homo sapiens) (UniProt Q14289); assay: Inhibition of PYK2 at 1 uM
SUP-M2 [2] = assay: Antitumor activity against ALK-positive human SUP-M2 cells xenografted in po dosed SCID mouse bid after 12 days; assay type: functional, organism-based
[3] = target: Serine/threonine-protein kinase 3 (Homo sapiens) (UniProt Q13188); assay: Inhibition of MST2 at 1 uM
[4] = test system: Receptor-type tyrosine-protein kinase FLT3 (Homo sapiens), P36888 [D835Y]; assay: Inhibition of FLT3 D835Y mutant at 1 uM
[5] = Growth inhibition of ALK-positive human SUP-M2 cells by MTS assay; assay type: functional, cell-based
SUP-M2 [6] = assay: Induction apoptosis in ALK-positive human SUP-M2 cells assessed as activation of caspase 3/7 by fluorometric assay; assay type: functional, cell-based
[7] = target: Protein-tyrosine kinase 2-beta (Homo sapiens) (UniProt Q14289); assay: Inhibition of PYK2 at 0.1 uM
[8] = Plasma clearance in SCID mouse at 1 mg/kg, iv by LC/MS/MS analysis; assay type: ADME, organism-based; set-up: dose 1 mg/kg, route intravenous
[9] = target: Mitogen-activated protein kinase 9 (Homo sapiens) (UniProt P45984); assay: Inhibition of JNK2 at 1 uM
[10] = target: Epidermal growth factor receptor (Homo sapiens) (UniProt P04626+P00533+Q15303+P21860); assay: Inhibition of EGFR L747 to E749 deletion, A750P mutant at 0.1 uM; assay type: protein assay
[11] = target: Ribosomal protein S6 kinase alpha-1 (Homo sapiens) (UniProt Q15418); assay: Inhibition of RPS6KA1 at 1 uM
[12] = target: T1, ALK tyrosine kinase receptor (Homo sapiens, UniProt Q9UM73); settings: 1 uM
Description: Inhibition of ALK at 1 uM

[13] = target: Fibroblast growth factor receptor 4 (Homo sapiens) (UniProt P22455); assay: Inhibition of FGFR4 at 1 uM
[14] = target: Serine/threonine-protein kinase PLK4 (Homo sapiens) (UniProt O00444); assay: Inhibition of PLK4 at 0.1 uM
[15] = test system: Mast/stem cell growth factor receptor Kit (Homo sapiens), P10721 [D816V]; assay: Inhibition of KIT D816V mutant at 1 uM
[16] = Tmax in SCID mouse at 10 mg/kg, po; assay type: ADME, organism-based; set-up: dose 10 mg/kg, route oral; settings: in vivo
[17] = target: Dual specificity mitogen-activated protein kinase kinase 4 (Homo sapiens) (UniProt P45985); assay: Inhibition of MEK4 at 0.1 uM
[18] = test system: Mast/stem cell growth factor receptor Kit (Homo sapiens), P10721 [D816V]; assay: Inhibition of KIT D816V mutant at 0.1 uM
[19] = target: Ribosomal protein S6 kinase alpha-1 (Homo sapiens) (UniProt Q15418); assay: Inhibition of RPS6KA1 at 0.1 uM
[20] = AUC in beagle dog at 1 mg/kg, iv; assay type: ADME, organism-based, Canis lupus familiaris; set-up: dose 1 mg/kg, route intravenous; settings: plasma
[21] = AUC in SCID mouse at 1 mg/kg, iv; assay type: ADME, organism-based; set-up: dose 1 mg/kg, route intravenous; settings: plasma
[22] = Oral bioavailability in SCID mouse at 10 mg/kg; assay type: ADME, organism-based; settings: in vivo
[23] = target: Non-receptor tyrosine-protein kinase TNK1 (Homo sapiens) (UniProt Q13470); assay: Inhibition of TNK1 at 1 uM
[24] = test system: Receptor-type tyrosine-protein kinase FLT3 (Homo sapiens), P36888 [N841I]; assay: Inhibition of FLT3 N841I mutant at 0.1 uM
[25] = Inhibition of FLT3 ITD mutant at 0.1 uM
KARPAS-299 = assay: Induction apoptosis in ALK-positive human KARPAS299 cells assessed as activation of caspase 3/7 by fluorometric assay; assay type: functional, cell-based
[26] = test system: Epidermal growth factor receptor (Homo sapiens), P00533 [L861Q]; assay: Inhibition of EGFR L861Q mutant at 1 uM; assay type: protein assay
[27] = target: Tyrosine-protein kinase Srms (Homo sapiens) (UniProt Q9H3Y6); assay: Inhibition of SRMS at 0.1 uM
Insulin receptor = Insulin receptor (Homo sapiens, UniProt P06213); assay: Inhibition of insulin receptor
Mus musculus [28] = assay: Toxicity in SCID mouse xenografted with human SUP-M2 cells assessed as weight loss at 10 mg/kg, po BID for 12 days; assay type: organism-based; set-up: dose 10 mg/kg, route oral; settings: in vivo, 288 h
[29] = Oral bioavailability in Sprague-Dawley rat at 5 mg/kg; assay type: ADME, organism-based; settings: in vivo
Mus musculus [30] = assay: Toxicity in SCID mouse xenografted with human SUP-M2 cells at 55 mg/kg, po BID for 12 days; assay type: organism-based; set-up: dose 55 mg/kg, route oral; settings: in vivo, 288 h
[31] = Tmax in beagle dog at 10 mg/kg, po; assay type: ADME, organism-based, Canis lupus familiaris; set-up: dose 10 mg/kg, route oral; settings: in vivo
Mus musculus [32] = assay: Toxicity in SCID mouse xenografted with human SUP-M2 cells assessed as weight loss at 55 mg/kg, po BID for 12 days; assay type: organism-based; set-up: dose 55 mg/kg, route oral; settings: in vivo, 288 h
[33] = target: Non-receptor tyrosine-protein kinase TNK1 (Homo sapiens) (UniProt Q13470); assay: Inhibition of TNK1 at 0.1 uM
[34] = target: Serine/threonine-protein kinase 33 (Homo sapiens) (UniProt Q9BYT3); assay: Inhibition of STK33 at 1 uM
[35] = target: Serine/threonine-protein kinase ULK3 (Homo sapiens) (UniProt Q6PHR2); assay: Inhibition of ULK3 at 0.1 uM
[36] = target: Tyrosine-protein kinase Fer (Homo sapiens) (UniProt P16591); assay: Inhibition of FER at 1 uM
[37] = test system: Epidermal growth factor receptor (Homo sapiens), P00533 [L858R]; assay: Inhibition of EGFR L858R mutant at 1 uM; assay type: protein assay
[38] = Half life in Sprague-Dawley rat at 1 mg/kg, iv; assay type: ADME, organism-based; set-up: dose 1 mg/kg, route intravenous; settings: in vivo
[39] = target: Cyclin-G-associated kinase (Homo sapiens) (UniProt O14976); assay: Inhibition of GAK at 0.1 uM
[40] = target: T1, ALK tyrosine kinase receptor; assay: Inhibition of NPM-ALK autophosphorylation in human KARPAS299 cells; assay type: cell-based; settings: karpas-299
[41] = AUC in Sprague-Dawley rat at 1 mg/kg, iv; assay type: ADME, organism-based; set-up: dose 1 mg/kg, route intravenous; settings: plasma
[42] = target: Mitogen-activated protein kinase kinase kinase 5 (Homo sapiens) (UniProt Q99683); assay: Inhibition of ASK1 at 0.1 uM
[43] = target: Mitogen-activated protein kinase 8 (Homo sapiens) (UniProt P45983); assay: Inhibition of JNK1 at 1 uM
[44] = test system: Receptor-type tyrosine-protein kinase FLT3 (Homo sapiens), P36888 [D835H]; assay: Inhibition of FLT3 D835H mutant at 0.1 uM
[45] = target: Dual specificity mitogen-activated protein kinase kinase 4 (Homo sapiens) (UniProt P45985); assay: Inhibition of MEK4 at 1 uM
[46] = target: Serine/threonine-protein kinase 32B (Homo sapiens) (UniProt Q9NY57); assay: Inhibition of YANK2 at 1 uM
[47] = target: Fibroblast growth factor receptor 4 (Homo sapiens) (UniProt P22455); assay: Inhibition of FGFR4 at 0.1 uM
[48] = target: Epidermal growth factor receptor (Homo sapiens) (UniProt P00533); assay: Inhibition of EGFR at 0.1 uM
[49] = target: Ribosomal protein S6 kinase alpha-2 (Homo sapiens) (UniProt Q15349); assay: Inhibition of RPS6KA2 at 1 uM
[50] = Half life in SCID mouse at 1 mg/kg, iv; assay type: ADME, organism-based; set-up: dose 1 mg/kg, route intravenous; settings: in vivo
[51] = AUC in beagle dog at 10 mg/kg, po; assay type: ADME, organism-based, Canis lupus familiaris; set-up: dose 10 mg/kg, route oral; settings: plasma
[52] = target: Ribosomal protein S6 kinase alpha-2 (Homo sapiens) (UniProt Q15349); assay: Inhibition of RPS6KA2 at 0.1 uM

Chain of Ribosomal protein S6 kinase alpha-1 (Homo sapiens) (Q15418 whole entry): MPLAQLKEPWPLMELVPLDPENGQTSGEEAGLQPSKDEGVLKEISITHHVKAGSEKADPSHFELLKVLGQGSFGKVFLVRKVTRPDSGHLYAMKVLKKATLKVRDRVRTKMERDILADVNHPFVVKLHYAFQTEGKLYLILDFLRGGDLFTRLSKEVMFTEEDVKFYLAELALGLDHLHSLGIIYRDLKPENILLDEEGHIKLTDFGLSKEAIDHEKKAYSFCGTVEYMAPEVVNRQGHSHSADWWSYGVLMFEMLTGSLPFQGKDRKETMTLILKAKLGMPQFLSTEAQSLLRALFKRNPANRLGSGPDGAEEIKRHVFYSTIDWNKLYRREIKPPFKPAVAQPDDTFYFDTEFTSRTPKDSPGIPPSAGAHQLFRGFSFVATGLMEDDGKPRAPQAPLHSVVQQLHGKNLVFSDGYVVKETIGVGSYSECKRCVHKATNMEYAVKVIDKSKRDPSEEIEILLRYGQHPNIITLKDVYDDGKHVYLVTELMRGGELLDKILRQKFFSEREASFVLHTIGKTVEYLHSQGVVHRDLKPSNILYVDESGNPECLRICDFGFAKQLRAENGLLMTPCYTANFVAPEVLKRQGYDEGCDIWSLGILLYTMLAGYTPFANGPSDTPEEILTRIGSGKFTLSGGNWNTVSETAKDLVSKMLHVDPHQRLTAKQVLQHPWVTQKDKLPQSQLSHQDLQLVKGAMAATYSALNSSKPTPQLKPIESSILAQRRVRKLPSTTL
Chain of Protein-tyrosine kinase 2-beta (Homo sapiens) (Q14289 whole entry, looked up): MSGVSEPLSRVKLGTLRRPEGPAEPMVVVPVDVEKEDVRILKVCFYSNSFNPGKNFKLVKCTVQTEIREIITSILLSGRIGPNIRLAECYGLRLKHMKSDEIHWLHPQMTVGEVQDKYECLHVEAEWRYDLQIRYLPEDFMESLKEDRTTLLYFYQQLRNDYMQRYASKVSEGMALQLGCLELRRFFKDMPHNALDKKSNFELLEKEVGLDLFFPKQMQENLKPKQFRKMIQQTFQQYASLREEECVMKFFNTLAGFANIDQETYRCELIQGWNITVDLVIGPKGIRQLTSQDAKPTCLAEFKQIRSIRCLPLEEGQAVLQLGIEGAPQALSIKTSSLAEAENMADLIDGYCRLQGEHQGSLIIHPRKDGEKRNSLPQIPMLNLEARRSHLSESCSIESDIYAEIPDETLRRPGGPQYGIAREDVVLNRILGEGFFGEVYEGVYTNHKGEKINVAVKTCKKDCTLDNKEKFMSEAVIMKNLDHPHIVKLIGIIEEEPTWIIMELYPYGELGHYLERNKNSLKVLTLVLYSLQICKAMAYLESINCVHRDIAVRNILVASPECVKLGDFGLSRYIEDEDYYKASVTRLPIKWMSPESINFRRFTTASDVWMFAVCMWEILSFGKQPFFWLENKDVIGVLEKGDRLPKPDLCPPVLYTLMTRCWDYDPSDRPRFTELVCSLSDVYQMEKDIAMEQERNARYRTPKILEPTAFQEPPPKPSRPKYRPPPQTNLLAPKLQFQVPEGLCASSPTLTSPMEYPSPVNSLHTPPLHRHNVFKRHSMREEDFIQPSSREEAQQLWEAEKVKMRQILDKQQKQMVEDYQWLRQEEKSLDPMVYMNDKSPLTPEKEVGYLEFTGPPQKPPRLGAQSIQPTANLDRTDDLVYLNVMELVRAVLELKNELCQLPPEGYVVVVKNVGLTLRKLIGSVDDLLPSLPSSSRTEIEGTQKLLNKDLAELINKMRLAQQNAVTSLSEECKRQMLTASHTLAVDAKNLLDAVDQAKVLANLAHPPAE
Chain of Non-receptor tyrosine-protein kinase TNK1 (Homo sapiens) (Q13470 whole entry): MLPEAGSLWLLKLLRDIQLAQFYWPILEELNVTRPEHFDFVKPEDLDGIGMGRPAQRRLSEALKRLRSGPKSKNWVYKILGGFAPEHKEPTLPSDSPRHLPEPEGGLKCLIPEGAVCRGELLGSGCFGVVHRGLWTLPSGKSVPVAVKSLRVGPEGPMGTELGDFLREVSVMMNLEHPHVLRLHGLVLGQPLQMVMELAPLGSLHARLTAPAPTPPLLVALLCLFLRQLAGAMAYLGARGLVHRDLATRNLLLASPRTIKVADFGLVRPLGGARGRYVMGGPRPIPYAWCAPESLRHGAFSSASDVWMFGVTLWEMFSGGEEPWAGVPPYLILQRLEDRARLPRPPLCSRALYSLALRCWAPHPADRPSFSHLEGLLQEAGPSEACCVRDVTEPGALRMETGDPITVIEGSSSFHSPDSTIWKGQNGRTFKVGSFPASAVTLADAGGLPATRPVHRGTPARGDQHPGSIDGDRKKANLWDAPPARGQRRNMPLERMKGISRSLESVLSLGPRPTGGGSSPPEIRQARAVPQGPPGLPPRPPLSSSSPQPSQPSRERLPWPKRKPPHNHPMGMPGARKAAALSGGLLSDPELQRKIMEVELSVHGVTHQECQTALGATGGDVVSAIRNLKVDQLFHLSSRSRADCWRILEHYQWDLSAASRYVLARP
Chain of Mast/stem cell growth factor receptor Kit (Homo sapiens), P10721 [D816V] (P10721 whole entry D816V): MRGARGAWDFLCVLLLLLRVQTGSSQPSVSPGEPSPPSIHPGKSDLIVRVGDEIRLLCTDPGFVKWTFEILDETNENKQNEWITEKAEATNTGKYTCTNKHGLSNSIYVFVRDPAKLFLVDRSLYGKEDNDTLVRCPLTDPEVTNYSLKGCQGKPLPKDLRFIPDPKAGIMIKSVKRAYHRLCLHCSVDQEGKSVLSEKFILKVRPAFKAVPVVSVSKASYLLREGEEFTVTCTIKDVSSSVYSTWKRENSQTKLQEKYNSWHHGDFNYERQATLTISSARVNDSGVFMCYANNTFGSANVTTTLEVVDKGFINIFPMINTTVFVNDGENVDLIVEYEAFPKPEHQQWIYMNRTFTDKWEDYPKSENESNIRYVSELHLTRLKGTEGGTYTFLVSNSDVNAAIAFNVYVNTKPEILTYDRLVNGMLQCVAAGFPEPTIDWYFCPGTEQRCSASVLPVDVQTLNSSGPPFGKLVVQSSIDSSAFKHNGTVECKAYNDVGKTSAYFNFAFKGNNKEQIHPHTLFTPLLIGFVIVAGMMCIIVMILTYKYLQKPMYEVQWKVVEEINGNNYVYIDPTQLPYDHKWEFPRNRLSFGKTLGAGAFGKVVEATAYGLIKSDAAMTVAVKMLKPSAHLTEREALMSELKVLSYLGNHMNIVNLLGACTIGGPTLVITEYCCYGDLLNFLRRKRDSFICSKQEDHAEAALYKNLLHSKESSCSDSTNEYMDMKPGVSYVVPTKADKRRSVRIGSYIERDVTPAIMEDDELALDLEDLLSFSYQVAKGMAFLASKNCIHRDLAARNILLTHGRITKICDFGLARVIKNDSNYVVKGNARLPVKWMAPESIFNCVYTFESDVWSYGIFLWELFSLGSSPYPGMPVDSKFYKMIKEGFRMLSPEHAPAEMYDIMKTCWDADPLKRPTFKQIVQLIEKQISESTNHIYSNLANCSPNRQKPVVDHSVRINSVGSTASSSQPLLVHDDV
Chain of Fibroblast growth factor receptor 4 (Homo sapiens) (P22455 22-802 limits assumed): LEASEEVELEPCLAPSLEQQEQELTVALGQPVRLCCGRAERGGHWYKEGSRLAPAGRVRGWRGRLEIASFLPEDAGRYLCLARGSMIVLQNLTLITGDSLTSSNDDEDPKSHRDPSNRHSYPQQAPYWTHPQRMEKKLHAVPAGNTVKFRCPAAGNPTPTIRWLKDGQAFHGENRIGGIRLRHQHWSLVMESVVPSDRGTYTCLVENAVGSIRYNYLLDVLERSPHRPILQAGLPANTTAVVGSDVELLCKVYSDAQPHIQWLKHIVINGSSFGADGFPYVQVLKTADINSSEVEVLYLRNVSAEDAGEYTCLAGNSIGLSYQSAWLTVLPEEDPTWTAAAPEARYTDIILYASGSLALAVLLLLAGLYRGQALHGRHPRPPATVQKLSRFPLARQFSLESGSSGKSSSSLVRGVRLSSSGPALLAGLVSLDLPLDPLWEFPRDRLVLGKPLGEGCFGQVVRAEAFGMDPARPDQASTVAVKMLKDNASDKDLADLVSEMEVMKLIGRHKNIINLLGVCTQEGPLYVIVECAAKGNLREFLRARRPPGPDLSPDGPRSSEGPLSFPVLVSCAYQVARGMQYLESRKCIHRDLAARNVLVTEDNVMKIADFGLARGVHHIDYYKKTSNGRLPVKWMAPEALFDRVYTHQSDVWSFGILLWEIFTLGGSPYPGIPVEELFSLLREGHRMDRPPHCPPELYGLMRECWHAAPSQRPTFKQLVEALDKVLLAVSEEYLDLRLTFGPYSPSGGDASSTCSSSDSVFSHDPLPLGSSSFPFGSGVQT
Chain of Dual specificity mitogen-activated protein kinase kinase 4 (Homo sapiens) (P45985 whole entry): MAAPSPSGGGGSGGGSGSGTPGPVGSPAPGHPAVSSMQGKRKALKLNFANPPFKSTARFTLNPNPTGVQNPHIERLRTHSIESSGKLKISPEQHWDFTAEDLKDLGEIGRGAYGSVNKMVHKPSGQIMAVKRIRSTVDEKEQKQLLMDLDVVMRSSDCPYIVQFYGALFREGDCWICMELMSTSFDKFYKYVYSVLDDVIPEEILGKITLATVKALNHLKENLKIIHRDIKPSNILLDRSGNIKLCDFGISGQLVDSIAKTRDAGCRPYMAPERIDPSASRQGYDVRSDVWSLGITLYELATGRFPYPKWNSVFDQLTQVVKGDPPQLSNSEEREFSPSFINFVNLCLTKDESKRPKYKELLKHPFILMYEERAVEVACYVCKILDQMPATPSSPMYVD
Chain of Serine/threonine-protein kinase ULK3 (Homo sapiens) (Q6PHR2 whole entry): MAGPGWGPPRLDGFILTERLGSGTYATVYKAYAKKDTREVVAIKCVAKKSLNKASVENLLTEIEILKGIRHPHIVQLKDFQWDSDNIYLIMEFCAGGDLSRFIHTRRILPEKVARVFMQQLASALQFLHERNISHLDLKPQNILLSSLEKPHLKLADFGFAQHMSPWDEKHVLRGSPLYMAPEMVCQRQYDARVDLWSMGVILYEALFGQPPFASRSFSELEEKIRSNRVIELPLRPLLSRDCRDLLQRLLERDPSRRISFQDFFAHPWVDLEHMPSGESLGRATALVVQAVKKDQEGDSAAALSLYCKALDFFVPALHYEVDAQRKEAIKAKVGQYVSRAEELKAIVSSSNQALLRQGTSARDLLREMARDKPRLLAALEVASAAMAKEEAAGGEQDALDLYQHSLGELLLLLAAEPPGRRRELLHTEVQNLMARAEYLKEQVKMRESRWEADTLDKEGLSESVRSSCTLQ

inhibition [1]: 99%
inhibition [3]: 91%
inhibition [4]: 96%
inhibition [7]: 90%
clearance [8]: 37 mL/min/kg
inhibition [9]: 92%
inhibition [10]: < 50%
inhibition [11]: 100%
inhibition [12]: 97%
inhibition [13]: 98%
inhibition [14]: 95%
inhibition [15]: 99%
Tmax [16]: 15 min
inhibition [17]: < 50%
inhibition [18]: 94%
inhibition [19]: 68%
AUC [20]: 773 ng·h/mL
AUC [21]: 446 ng·h/mL
bioavailability [22]: 32%
inhibition [23]: 100%
inhibition [24]: < 50%
inhibition [25]: < 50%
inhibition [26]: 93%
inhibition [27]: < 50%
IC50 (Insulin receptor): 0.597 µM
bioavailability [29]: 64%
Tmax [31]: 66 min
inhibition [33]: 93%
inhibition [34]: 99%
inhibition [35]: < 50%
inhibition [36]: 100%
inhibition [37]: 92%
half-life [38]: 48 min
inhibition [39]: < 50%
IC50 [40]: 0.045 µM
AUC [41]: 1280 ng·h/mL
inhibition [42]: 72%
inhibition [43]: 100%
inhibition [44]: 85%
inhibition [45]: 90%
inhibition [46]: 92%
inhibition [47]: < 50%
inhibition [48]: < 50%
inhibition [49]: 100%
half-life [50]: 18 min
AUC [51]: 2480 ng·h/mL
inhibition [52]: < 50%
SMILES: CCN1C(=O)CCCc2c1ccc(Nc1ncc(Cl)c(N[C@H]3[C@@H](C(N)=O)[C@@H]4C=C[C@H]3C4)n1)c2OC
Activity (SUP-M2 [2]): Dose-dependent effect
EC50 [5]: 0.2 µM
Activity (SUP-M2 [6]): Active
Activity (KARPAS-299): Active
Activity (Mus musculus [28]): Non-toxic
Activity (Mus musculus [30]): Non-toxic
Activity (Mus musculus [32]): Non-toxic
